# Measured values from patent US9757473B2, “Cell-penetrating peptide and conjugate comprising same” (GEMVAX & KAEL CO., LTD., priority 2013, dated 2017).
# Residues, ends and D or L forms follow the SMILES beside them. No end group written: not given here.
# What was measured:
# Assay type in all cases: cell-based
# [1] = test system: normal cell DPSC (Dental Pulp Stem Cell); assay: Dose-dependent cell apoptosis by MTT assay, normal cells (Example 5)
# Protocol: (§1) The cell line was made by the cells and the cell cultivation method described in example 2 as same.
# (§2) After culturing the cancer cells and normal cells at 96 well-plate in 30-40% level 24-hours in advance by pre-seeding, treating with each reagent, and pre-evaluating killing ability by analyzing cell shape through microscope at 24 hours/48 hours/72 hours after, the quantitative analysis was done by MTT (3-(4,5-dimethylthiazol-2-yl)-2,5-diphenyltetrazolium bromide, a yellow tetrazole) assay which measures OD (optical density) values at 72 hours after.
# [2] = test system: head and neck cancer cells; assay: Dose-dependent cell apoptosis by MTT assay, cancer cell lines (Example 5); details: MTT at 72 hours
# Protocol: as §1, §2
# [3] = test system: SNU-1041 and SNU-1076 head and neck cancer cells; assay: Intracellular trafficking (cell penetrability) by flow cytometry (FACS); details: SNU-1041 and SNU-1076 cells, 10 uM, 2.5 hours, FIG. 2
# Protocol: In order to analysis of intracellular trafficking, Korean head and neck cancer cells (SNU-1041, SNU-1076), head and neck cancer cells founded by MD Anderson cancer center (OSC19, HN5), and normal cells DPSC (Dental Pulp Stem Cell) were used.
# (§3) The cell lines was maintained in good condition by seeding each cells to 100 cm2-culture dishes with RPMI-1640 or DMEM culture-media, 10% FBS and antibiotic-antimycotic antibiotics and culturing in incubator (37° C., 5% CO2). The condition of cells was maintained in good condition by checking the speed and conditions of cells and sub-culturing cells per 2-5 days.
# After culturing the cells with prepared cancer cells in 6 well-plate at 60-70% level 24-hours in advance, treating FITC (10 uM), pep1-FITC (10 uM), FITC-TAT (10 uM) separately, eliminating the culture media 2.5 hours later, washing with saline, and separating cells by treating Trypsin-EDTA enzyme to prepare each tube of 10^6 cells/ml, the cells was analyzed by FACS.
# [4] = test system: HN5 and OSC19 head and neck cancer cells; assay: as above; details: 10 uM, 2.5 hours
# Protocol: as §3, with “In order to analysis of intracellular trafficking, Korean head and neck cancer cells (SNU-1041, SNU-1076), head and neck cancer cells founded by MD Anderson cancer center (OSC19, HN5), and normal cells DPSC (Dental Pulp Stem Cell) were used. The cell” for “The cell”
# [5] = test system: head and neck cancer cells; assay: as above; details: 10 uM, 2.5 hours
# Protocol: as §3, with “In order to analysis of intracellular trafficking, Korean head and neck cancer cells (SNU-1041, SNU-1076), head and neck cancer cells founded by MD Anderson cancer center (OSC19, HN5), and normal cells DPSC (Dental Pulp Stem Cell) were used. The cell” for “The cell”
compound,measurement,setting,value
Cc1ccc(S(=O)(=O)OCC(=O)Nc2ccc(C(=O)O)c(O)c2)cc1 [NSC 74859],concentration at which cell apoptosis of normal cells was shown,"[1]; MTT at 72 hours, FIG. 4",200 µM
same,concentration till which normal cells were not killed,"[1]; MTT at 72 hours, FIG. 4",100 µM
same,concentration from which killing / apoptosis of cancer cells started,"[2]; FIG. 4, FIG. 5",50 µM
same,concentration killing almost the whole cancer cells,"[2]; FIG. 4, FIG. 5",200 µM
"pep 1: pep 1 (consists of 16 amino acids) derived from telomerase, used for comparison (EARPALLTSRLRFIPK; UniProt O14746 611-626, looked up, fragment)",cell penetrability (in words),[3],high cell penetrability
NRGFKAGRNMRRKLFGVLRL [pep98],proliferation of cancer cells (cytotoxicity),"[2]; treated alone, FIG. 3",not significantly decreased
"pep1-FITC (EARPALLTSRLRFIPK; also: FITC label, site not given here; UniProt O14746 611-626, looked up, fragment)",cell penetrability (in words),[4],lower cell penetrability
same,cell penetrability compared with FITC only,[5],improved cell penetrability than the FITC only
CSCC[C@H](NC(=O)[C@H](CC(N)=O)NC(=O)[C@H](CCCNC(=N)N)NC(=O)CNC(=O)[C@H](C)NC(=O)[C@H](CCCCN)NC(=O)[C@H](Cc1ccccc1)NC(=O)CNC(=O)[C@H](CCCNC(=N)N)NC(=O)[C@H](CC(N)=O)NC(=O)c1ccc(NC(=O)COS(=O)(=O)c2ccc(C)cc2)cc1O)C(=O)N[C@@H](CCCNC(=N)N)C(=O)N[C@@H](CCCNC(=N)N)C(=O)N[C@@H](CCCCN)C(=O)N[C@@H](CC(C)C)C(=O)N[C@@H](Cc1ccccc1)C(=O)NCC(=O)N[C@H](C(=O)N[C@@H](CC(C)C)C(=O)N[C@@H](CCCNC(=N)N)C(=O)N[C@@H](CC(C)C)C(=O)O)C(C)C [pep98-NSC 74859] (HELM PEPTIDE1{[Cc1ccc(S(=O)(=O)OCC(=O)[*:2])cc1].[O=C(c1ccc(N[*:1])cc1O)[*:2]].N.R.G.F.K.A.G.R.N.M.R.R.K.L.F.G.V.L.R.L}$$$$V2.0),killing of normal cells (in words),"[1]; at the concentration that killed almost the whole cancer cells, FIG. 5",did not kill normal cell DPSC
